Assay results published in US20240317775A1, “H4 Antagonist Compounds” (HEPTARES THERAPEUTICS LIMITED, priority 2020, published 2024).

Legend:
hERG = hERG (Homo sapiens, UniProt Q12809); assay: hERG single-concentration assay (QPatch automated patch clamp, CHO cells, 30 μM); format: cell-based; conditions: CHO cells stably expressing hERG
Excerpt: Series resistance (4-15 MΩ) was compensated by >80%.

human H4 receptor = biological target: T1, human H4 receptor (Homo sapiens, UniProt Q9H3N8); assay: H4 Antagonist Functional cAMP Gi Assay; format: cell-based; conditions: HEKf cells expressing human H4 receptor; functional antagonist pKb by Cheng-Prusoff vs histamine; read-out: Human H4 cAMP fpKb (converted)
T1 construct: expressed in transfected cells; host or cells: HEKf cells infected with baculovirus
T1 sequence (Q9H3N8 whole entry): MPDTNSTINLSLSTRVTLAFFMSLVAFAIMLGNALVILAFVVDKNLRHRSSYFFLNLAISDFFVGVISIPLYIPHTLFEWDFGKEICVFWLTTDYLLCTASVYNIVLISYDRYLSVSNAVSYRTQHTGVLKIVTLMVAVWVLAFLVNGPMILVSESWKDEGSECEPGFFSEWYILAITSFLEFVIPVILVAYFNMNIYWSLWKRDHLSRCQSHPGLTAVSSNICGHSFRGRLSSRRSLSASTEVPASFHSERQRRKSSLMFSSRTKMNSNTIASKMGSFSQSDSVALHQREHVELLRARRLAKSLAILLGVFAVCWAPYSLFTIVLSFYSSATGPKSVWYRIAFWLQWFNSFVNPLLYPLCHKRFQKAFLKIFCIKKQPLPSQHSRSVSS
Procedure: HEKf cells were infected overnight using baculovirus expressing the human H4 receptor, then centrifuged at 1,200 rpm for 5 min, frozen in cell freezing medium (Sigma) and stored at −150° C. On the day of assay, the cells were thawed and resuspended in HBSS with 500 nM IBMX to achieve a density of 1,500 cells/well. H4 ligands were prepared in DMSO and stamped by LabCyte ECHO acoustic dispensing at 25 nL in low volume plates. 10 μL/well cells were plated in the presence of 1 μM forskolin, subjected to centrifugation at 1,200 rpm for 1 min and incubated for 30 min prior to addition of Cisbio cAMP detection reagents to a total volume 20 μL/well. […] Following detection reagent addition and shaking at room temperature for 60 min, cAMP accumulation was measured using HTRF on a PheraStar plate reader. EC50 values were generated using a 4-parameter logistical fit equation to quantify agonist potencies. Functional antagonist affinity values were generated using the Cheng-Prusoff equation to calculate a pKb value using the antagonist assay data.

Chain of hERG (Q12809 whole entry): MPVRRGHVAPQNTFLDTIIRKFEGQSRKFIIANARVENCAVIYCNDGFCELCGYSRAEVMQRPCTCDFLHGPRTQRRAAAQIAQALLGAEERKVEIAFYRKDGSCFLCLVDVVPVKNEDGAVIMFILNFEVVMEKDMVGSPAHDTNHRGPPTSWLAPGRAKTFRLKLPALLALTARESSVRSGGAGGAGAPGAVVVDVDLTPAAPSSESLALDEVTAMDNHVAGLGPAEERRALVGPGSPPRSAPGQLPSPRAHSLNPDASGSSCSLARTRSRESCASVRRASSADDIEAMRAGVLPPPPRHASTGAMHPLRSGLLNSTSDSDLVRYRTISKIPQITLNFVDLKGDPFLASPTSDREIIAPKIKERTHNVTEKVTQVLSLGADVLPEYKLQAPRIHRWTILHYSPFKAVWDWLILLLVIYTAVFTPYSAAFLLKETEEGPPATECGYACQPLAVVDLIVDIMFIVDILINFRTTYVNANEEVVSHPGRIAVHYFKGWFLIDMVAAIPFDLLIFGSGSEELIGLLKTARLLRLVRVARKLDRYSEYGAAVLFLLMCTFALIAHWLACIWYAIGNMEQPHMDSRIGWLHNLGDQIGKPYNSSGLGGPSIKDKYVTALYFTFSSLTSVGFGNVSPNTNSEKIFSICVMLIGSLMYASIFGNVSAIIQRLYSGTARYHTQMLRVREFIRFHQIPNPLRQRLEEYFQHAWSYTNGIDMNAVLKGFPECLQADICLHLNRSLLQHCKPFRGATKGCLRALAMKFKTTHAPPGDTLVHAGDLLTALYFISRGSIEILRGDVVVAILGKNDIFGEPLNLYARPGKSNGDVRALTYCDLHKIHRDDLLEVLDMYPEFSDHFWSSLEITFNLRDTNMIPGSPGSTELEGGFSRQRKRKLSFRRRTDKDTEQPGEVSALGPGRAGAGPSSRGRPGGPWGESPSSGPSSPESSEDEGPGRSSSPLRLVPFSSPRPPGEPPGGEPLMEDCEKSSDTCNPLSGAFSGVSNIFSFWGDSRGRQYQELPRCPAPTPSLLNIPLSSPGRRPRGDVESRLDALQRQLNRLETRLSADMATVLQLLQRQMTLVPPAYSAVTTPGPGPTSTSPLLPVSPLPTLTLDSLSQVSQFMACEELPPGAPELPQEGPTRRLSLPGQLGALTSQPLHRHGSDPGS

## CN[C@@H]1CCN(c2nc(N)nc3c2OCC(C)(C)N3)C1 [Example 1-14, (R)-7,7-Dimethyl-4-(3-(methylamino)pyrrolidin-1-yl)-7,8-dihydro-6H-pyrimido[5,4-b][1,4]oxazin-2-amine]
hERG
  inhibition at 30 µM: 11%
Human H4 receptor
  Kb: 6.31 nM

## CN[C@@H]1CCN(c2nc(N)nc3c2OC[C@@H](C(C)(C)OC)N3)C1 [Example 1-12, (S)-7-(2-Methoxypropan-2-yl)-4-((R)-3-(methylamino)pyrrolidin-1-yl)-7,8-dihydro-6H-pyrimido[5,4-b][1,4]oxazin-2-amine]
hERG
  inhibition at 30 µM: 8.3%
Human H4 receptor
  Kb: 2 nM

## Nc1nc2c(c(N3CC[C@@H](N)C3)n1)OCC(C(F)(F)F)N2 (stereo partly drawn) [Example 2-3, 4-((R)-3-Aminopyrrolidin-1-yl)-7-(trifluoromethyl)-7,8-dihydro-6H-pyrimido[5,4-b][1,4]oxazin-2-amine]
hERG
  inhibition at 30 µM: 28%
Human H4 receptor
  Kb: 10 nM

## CN[C@@H]1CCN(c2nc(N)nc3c2OC[C@@]2(C)CCCN32)C1 [Example 1-22, (R)-6a-Methyl-4-((R)-3-(methylamino)pyrrolidin-1-yl)-6a,7,8,9-tetrahydro-6H-pyrimido[5,4-b]pyrrolo[1,2-d][1,4]oxazin-2-amine]
hERG
  inhibition at 30 µM: 45%
Human H4 receptor
  Kb: 251 nM

## CN[C@@H]1CCN(c2nc(N)nc3c2OCC(C(F)(F)F)N3)C1 (stereo partly drawn) [Example 1-8, 4-((R)-3-(Methylamino)pyrrolidin-1-yl)-7-(trifluoromethyl)-7,8-dihydro-6H-pyrimido[5,4-b][1,4]oxazin-2-amine]
hERG
  inhibition at 30 µM: 19%
Human H4 receptor
  Kb: 10 nM

## CN[C@@H]1CCN(c2nc(N)nc3c2OCC2CCCN32)C1 (stereo partly drawn) [Example 1-21, 4-((R)-3-(Methylamino)pyrrolidin-1-yl)-6a,7,8,9-tetrahydro-6H-pyrimido[5,4-b]pyrrolo[1,2-d][1,4]oxazin-2-amine]
hERG
  inhibition at 30 µM: 8.5%
Human H4 receptor
  Kb: 12.6 nM

## CNC1CN(c2nc(N)nc3c2OC[C@@H]([C@@H](C)OC)N3)C1 [Example 3-4, (S)-7-((R)-1-Methoxyethyl)-4-(3-(methylamino)azetidin-1-yl)-7,8-dihydro-6H-pyrimido[5,4-b][1,4]oxazin-2-amine]
hERG
  inhibition at 30 µM: 12%
Human H4 receptor
  Kb: 12.6 nM

## CN[C@@H]1CCN(c2nc(N)nc3c2OC[C@@H](COC)N3)C1 [Example 1-9, (R)-7-(Methoxymethyl)-4-((R)-3-(methylamino)pyrrolidin-1-yl)-7,8-dihydro-6H-pyrimido[5,4-b][1,4]oxazin-2-amine]
hERG
  inhibition at 30 µM: 12%
Human H4 receptor
  Kb: 10 nM

## CNC1CN(c2ncnc3c2OC[C@@H](C(C)C)N3)C1 [Example 9-1, (R)-1-(7-Isopropyl-7,8-dihydro-6H-pyrimido[5,4-b][1,4]oxazin-4-yl)-N-methylazetidin-3-amine]
hERG
  inhibition at 30 µM: 18%
Human H4 receptor
  Kb: 3.98 nM

## CC(C)[C@@H]1COc2c(ncnc2N2CC[C@@H](N)C2)N1 [Example 8-1, (R)-1-((R)-7-Isopropyl-7,8-dihydro-6H-pyrimido[5,4-b][1,4]oxazin-4-yl)pyrrolidin-3-amine]
hERG
  inhibition at 30 µM: 21%
Human H4 receptor
  Kb: 5.01 nM

## CN[C@@H]1CCN(c2nc(N)nc3c2OC[C@@H]([C@@H](C)OC)N3)C1 [Example 1-10, (S)-7-((R)-1-Methoxyethyl)-4-((R)-3-(methylamino)pyrrolidin-1-yl)-7,8-dihydro-6H-pyrimido[5,4-b][1,4]oxazin-2-amine]
hERG
  inhibition at 30 µM: 12%
Human H4 receptor
  Kb: 6.31 nM

## CNC1CN(c2nc(N)nc3c2OCC[C@H](C(C)C)N3)C1 [Example 13-2, (R)-8-Isopropyl-4-(3-(methylamino)azetidin-1-yl)-6,7,8,9-tetrahydropyrimido[5,4-b][1,4]oxazepin-2-amine]
Human H4 receptor
  Kb: 15.8 nM

## CN[C@@H]1CCN(c2nc(N)nc3c2OC[C@]2(C)CCCN32)C1 [Example 1-23, (S)-6a-Methyl-4-((R)-3-(methylamino)pyrrolidin-1-yl)-6a,7,8,9-tetrahydro-6H-pyrimido[5,4-b]pyrrolo[1,2-d][1,4]oxazin-2-amine]
Human H4 receptor
  Kb: 39.8 nM

## CN[C@@H]1CCN(c2ncnc3c2OCC[C@H](C(C)C)N3)C1 [Example 14-2, (R)-1-((R)-8-Isopropyl-6,7,8,9-tetrahydropyrimido[5,4-b][1,4]oxazepin-4-yl)-N-methylpyrrolidin-3-amine]
Human H4 receptor
  Kb: 100 nM

## Cc1cc(C)c2nc(-c3cnc(NCCCC4CCN(C)CC4)nc3C)[nH]c2c1 [Toreforant, reference compound]
hERG
  inhibition at 30 µM: 89%
Human H4 receptor
  Kb: 20 nM

## CC(C)[C@@H]1COc2c(nc(N)nc2N2CCNCC2)N1 [Example 6-1, (R)-7-Isopropyl-4-(piperazin-1-yl)-7,8-dihydro-6H-pyrimido[5,4-b][1,4]oxazin-2-amine]
hERG
  inhibition at 30 µM: 13%
Human H4 receptor
  Kb: 3.98 nM

## CN[C@@H]1CCN(c2nc(N)nc3c2O[C@@H](C)[C@@H](C)N3)C1 [Example 1-16, (6S,7R)-6,7-Dimethyl-4-((R)-3-(methylamino)pyrrolidin-1-yl)-7,8-dihydro-6H-pyrimido[5,4-b][1,4]oxazin-2-amine]
Human H4 receptor
  Kb: 31.6 nM

## CN[C@@H]1CCN(c2nc(N)nc3c2OC[C@@H](C2CC2)N3)C1 [Example 1-6, (R)-7-Cyclopropyl-4-((R)-3-(methylamino)pyrrolidin-1-yl)-7,8-dihydro-6H-pyrimido[5,4-b][1,4]oxazin-2-amine]
Human H4 receptor
  Kb: 0.631 nM

## CN[C@@H]1CCN(c2ncnc3c2OC(C)CN3)C1 (stereo partly drawn) [Example 7-5, (3R)—N-Methyl-1-(6-methyl-7,8-dihydro-6H-pyrimido[5,4-b][1,4]oxazin-4-yl)pyrrolidin-3-amine]
Human H4 receptor
  Kb: 251 nM

## CC[C@@H]1COc2c(nc(N)nc2N2CC(N)C2)N1 [Example 4-1, (R)-4-(3-Aminoazetidin-1-yl)-7-ethyl-7,8-dihydro-6H-pyrimido[5,4-b][1,4]oxazin-2-amine]
Human H4 receptor
  Kb: 79.4 nM

## CN[C@@H]1CCN(c2nc(N)nc3c2OC(C)CN3)C1 (stereo partly drawn) [Example 1-15, 6-Methyl-4-((R)-3-(methylamino)pyrrolidin-1-yl)-7,8-dihydro-6H-pyrimido[5,4-b][1,4]oxazin-2-amine]
hERG
  inhibition at 30 µM: 1.5%
Human H4 receptor
  Kb: 398 nM

## CN[C@@H]1CCN(c2nc(N)nc3c2O[C@@H](C)[C@H](C)N3)C1 [Example 1-18, (6S,7S)-6,7-Dimethyl-4-((R)-3-(methylamino)pyrrolidin-1-yl)-7,8-dihydro-6H-pyrimido[5,4-b][1,4]oxazin-2-amine]
Human H4 receptor
  Kb: 316 nM

## CN[C@@H]1CCN(c2ncnc3c2OC[C@@H]([C@@H](C)OC)N3)C1 [Example 7-4, (R)-1-((S)-7-((R)-1-Methoxyethyl)-7,8-dihydro-6H-pyrimido[5,4-b][1,4]oxazin-4-yl)-N-methylpyrrolidin-3-amine]
Human H4 receptor
  Kb: 31.6 nM

## CN[C@@H]1CCN(c2nc(N)nc3c2OCC[C@@H]2CCCN32)C1 [Example 11-10, (S)-4-((R)-3-(Methylamino)pyrrolidin-1-yl)-6,7,7a,8,9,10-hexahydropyrimido[5,4-b]pyrrolo[1,2-d][1,4]oxazepin-2-amine]
Human H4 receptor
  Kb: 794 nM

## CN[C@@H]1CCN(c2nc(N)nc3c2O[C@H](C)[C@@H](C)N3)C1 [Example 1-17, (6R,7R)-6,7-Dimethyl-4-((R)-3-(methylamino)pyrrolidin-1-yl)-7,8-dihydro-6H-pyrimido[5,4-b][1,4]oxazin-2-amine]
Human H4 receptor
  Kb: 79.4 nM

## CNC1CN(c2nc(N)nc3c2OC[C@@H](C2CC2)N3)C1 [Example 3-3, (R)-7-Cyclopropyl-4-(3-(methylamino)azetidin-1-yl)-7,8-dihydro-6H-pyrimido[5,4-b][1,4]oxazin-2-amine]
Human H4 receptor
  Kb: 7.94 nM

## CN[C@@H]1CCN(c2nc(N)nc3c2OCC(C)CN3)C1 (stereo partly drawn) [Example 11-7, 7-Methyl-4-((R)-3-(methylamino)pyrrolidin-1-yl)-6,7,8,9-tetrahydropyrimido[5,4-b][1,4]oxazepin-2-amine]
Human H4 receptor
  Kb: 251 nM

## CN[C@@H]1CCN(c2nc(C)nc3c2OCC(C(C)C)N3)C1 (stereo partly drawn) [Example 10-1, (3R)-1-(7-Isopropyl-2-methyl-7,8-dihydro-6H-pyrimido[5,4-b][1,4]oxazin-4-yl)-N-methylpyrrolidin-3-amine]
Human H4 receptor
  Kb: 398 nM

## CN[C@@H]1CCN(c2ncnc3c2OC[C@@H](C2CC2)N3)C1 [Example 7-2, (R)-1-((R)-7-Cyclopropyl-7,8-dihydro-6H-pyrimido[5,4-b][1,4]oxazin-4-yl)-N-methylpyrrolidin-3-amine]
Human H4 receptor
  Kb: 3.16 nM

## CO[C@H](C)[C@@H]1COc2c(nc(N)nc2N2CC[C@@H](N)C2)N1 [Example 2-4, (S)-4-((R)-3-Aminopyrrolidin-1-yl)-7-((R)-1-methoxyethyl)-7,8-dihydro-6H-pyrimido[5,4-b][1,4]oxazin-2-amine]
Human H4 receptor
  Kb: 50.1 nM

## CN[C@@H]1CCN(c2cc(NCC3CC3)nc(N)n2)C1 [PF-3893787, reference compound]
hERG
  inhibition at 30 µM: 67%

## COC(C)(C)[C@@H]1COc2c(nc(N)nc2N2CC[C@@H](N)C2)N1 [Example 2-6, (S)-4-((R)-3-Aminopyrrolidin-1-yl)-7-(2-methoxypropan-2-yl)-7,8-dihydro-6H-pyrimido[5,4-b][1,4]oxazin-2-amine]
Human H4 receptor
  Kb: 20 nM

## CN[C@@H]1CCN(c2nc(N)nc3c2OCC(CC(C)C)N3)C1 (stereo partly drawn) [Example 1-7, 7-isobutyl-4-((R)-3-(methylamino)pyrrolidin-1-yl)-7,8-dihydro-6H-pyrimido[5,4-b][1,4]oxazin-2-amine]
Human H4 receptor
  Kb: 20 nM

## CC(C)[C@@H]1COc2c(nc(N)nc2N2CC(N)C2)N1 [Example 4-2, (R)-4-(3-Aminoazetidin-1-yl)-7-isopropyl-7,8-dihydro-6H-pyrimido[5,4-b][1,4]oxazin-2-amine]
Human H4 receptor
  Kb: 63.1 nM
